Where a name gives a salt, the structure may show the parent alone.

Data set [1] has as its target T1, JAK3: Recombinant human kinase domain (h-jak3-sf21-c) (Homo sapiens, UniProt P52333).
T1 construct: JAK3: Recombinant human kinase domain from Millipore (Cat # 14-629) or prepared; purchased Millipore 14-629
As to the kind of experiment: Determination of IC50 of Janus Kinase (JAK) inhibition, JAK3 (radioactive end-point assay with 33P-ATP). The data set is classed as biochemical. The following applies: ATP 1.5 uM, peptide 50 uM, 20 minutes, room temperature. From the text: Determination of IC50 of Janus Kinase (JAK) Inhibition:
Enzymes and peptide substrate used are described below: • JAK1: Recombinant human kinase domain from Invitrogen (Cat # PV4774) • JAK3: Recombinant human kinase domain from Millipore (Cat # 14-629) or prepared. • JAK2: Recombinant human kinase domain from Millipore (Cat # 14-640) • Substrate: N-terminally biotinylated 14-mer peptide derived from activation loop of JAK1 with sequence of the peptide substrate: Biotin-[…]
Assay conditions used are described below: • Assay Buffer: JAK Kinase Buffer: 50 mM Hepes [pH 7.2], 10 mM MgCl2, 1 mM DTT, 1 mg/mL BSA. The assay is carried out in this buffer. • Assay Format The kinase activity of all three JAK kinases is measured using a radioactive, end-point assay and with trace amounts of^33P-ATP. The assays are carried out in 96-well polypropylene plates. Experimental Method:
All concentrations are final in the reaction mixture and all incubations are carried at room temperature. Assay steps are described below: • 1) Compounds are serially diluted in 100% DMSO typically at a 10× starting concentration of 1 mM. Final concentration of DMSO in the reaction is 10%. • 2) Compounds are preincubated with enzyme (0.5 nM JAK3 (commercially available), 0.2 nM JAK3 (prepared), 1 nM JAK2, 5 nM JAK1) for 10 minutes. • 3) Reactions are initiated by the addition of a cocktail of the two substrates (ATP and peptide premixed in the JAK Kinase Buffer). In the JAK2/JAK3 assays, ATP and the peptide are used at concentrations of 1.5 uM and 50 uM, respectively. JAK1 assay is carried out at an ATP concentration of 10 uM and a peptide concentration of 50 uM. • 4) The duration of the assay for JAK2 and JAK3 is 20 minutes. JAK1 assay is carried out for 40 minutes. With all three enzymes, reactions are terminated by the addition of 0.5M EDTA to a final concentration of 100 mM. • 5) 25 ul of terminated reactions are transferred to 150 ul of a 7.5% (v/v) slurry of streptavidin-coated sepharose beads in MgCl2- and CaCl2-free 1× Phosphate Buffered Saline containing 50 mM of EDTA in 96-well, 1.2 um MultiScreen-BV filter plates. • 6) After a 30-minute incubation, the beads are washed under vacuum with the following buffers: • a. 3 to 4 washes with 200 ul of 2M NaCl. • b. 3 to 4 washes with 200 ul of 2M NaCl plus 1% (v/v) phosphoric acid. • c. 1 wash with water. • 7) Washed plates are dried in a 60° C. oven for between 1 to 2 hours. • 8) 70 ul of Microscint 20 scintillation fluid is added to each well of filter plates and after at least 30 minutes of incubation, radioactive counts are measured in a Perkinelmer microplate scintillation counter.

T1 sequence (P52333 822-1111 limits assumed): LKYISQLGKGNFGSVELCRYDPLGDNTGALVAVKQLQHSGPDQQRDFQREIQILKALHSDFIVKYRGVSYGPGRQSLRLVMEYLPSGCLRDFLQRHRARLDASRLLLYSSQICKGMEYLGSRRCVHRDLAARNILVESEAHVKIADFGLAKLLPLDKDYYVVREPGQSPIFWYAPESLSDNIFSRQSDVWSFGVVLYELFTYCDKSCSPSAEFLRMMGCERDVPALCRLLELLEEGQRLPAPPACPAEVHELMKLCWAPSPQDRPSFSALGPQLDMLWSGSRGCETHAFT

Broadly, the melting point is the temperature of the solid-liquid transition. For `CC(C)(O)C1(NC(=O)c2c[nH]c3ncc(C4CC4)nc23)CCNC1` (stereo not shown) (as salt: hydrochloride) [Compound I-17, 2-Cyclopropyl-5H-pyrrolo[2,3-b]pyrazine-7-carboxylic acid [3-(1-hydroxy-1-methyl-ethyl)-pyrrolidin-3-yl]-amide], the melting point lay in the range of 200 to 203 °C.
The IC50 is the concentration needed to halve the response being measured. `C[C@]1(O)CCC[C@@H]1NC(=O)c1c[nH]c2ncc(C3CC3)nc12` (relative stereo) [Compound I-11, 2-Cyclopropyl-5H-pyrrolo[2,3-b]pyrazine-7-carboxylic acid ((trans)-2-hydroxy-2-methyl-cyclopentyl)-amide] came in with a melting point of 260 to 262 °C. Also, in data set [1], the IC50 stood at 12.9 nM.
As to `N#C[C@@H]1CCC[C@@H]1NC(=O)c1c[nH]c2ncc(C3CC3)nc12` (relative stereo) [Compound I-25, 2-Cyclopropyl-5H-pyrrolo[2,3-b]pyrazine-7-carboxylic acid ((cis)-2-cyano-cyclopentyl)-amide], the melting point was above 300 °C. For the same compound, the IC50 in data set [1] was found to be 10 nM.
Taken in the same sequence, the figures for `O=C(NC1CCOCC1)c1c[nH]c2ncc(C3CC3)nc12` [Compound I-1, 2-Cyclopropyl-5H-pyrrolo[2,3-b]pyrazine-7-carboxylic acid (tetrahydro-pyran-4-yl)-amide] were above 300 °C and 42 nM.
Taken in the same sequence, the figures for `O=C(NC1(CO)CCOCC1)c1c[nH]c2ncc(C3CC3)nc12` [Compound I-2, 2-Cyclopropyl-5H-pyrrolo[2,3-b]pyrazine-7-carboxylic acid (4-hydroxymethyl-tetrahydro-pyran-4-yl)-amide] were 294 to 296 °C and 674 nM.
Taken in the same sequence, the figures for `O=C(NC1(CO)CCCC1)c1c[nH]c2ncc(C3CC3)nc12` [Compound I-3, 2-Cyclopropyl-5H-pyrrolo[2,3-b]pyrazine-7-carboxylic acid (1-hydroxymethyl-cyclopentyl)-amide] were 272 to 274 °C and 44.2 nM.
For `CC1(C)OCCC1NC(=O)c1c[nH]c2ncc(C3CC3)nc12` (stereo not shown) [Compound I-4, 2-Cyclopropyl-5H-pyrrolo[2,3-b]pyrazine-7-carboxylic acid (2,2-dimethyl-tetrahydro-furan-3-yl)-amide], the melting point is above 300 °C. Besides, the IC50 in data set [1] was determined as 5.3 nM.
For `N#Cc1cccc(NC(=O)c2c[nH]c3ncc(C4CC4)nc23)c1` [Compound I-5, 2-Cyclopropyl-5H-pyrrolo[2,3-b]pyrazine-7-carboxylic acid (3-cyano-phenyl)-amide], the melting point was 272 to 274 °C. Besides, in data set [1], the IC50 stood at 735 nM.
Taken in the same sequence, the figures for `O=C(NC1CCCOC1)c1c[nH]c2ncc(C3CC3)nc12` (stereo not shown) [Compound I-6, 2-Cyclopropyl-5H-pyrrolo[2,3-b]pyrazine-7-carboxylic acid (tetrahydro-pyran-3-yl)-amide] were above 300 °C and 15.6 nM.
The matching figures for `CC1(C)CCCC1NC(=O)c1c[nH]c2ncc(C3CC3)nc12` (stereo not shown) [Compound I-7, 2-Cyclopropyl-5H-pyrrolo[2,3-b]pyrazine-7-carboxylic acid (2,2-dimethyl-cyclopentyl)-amide]: above 300 °C and 1.1 nM.
`O=C(Nc1cccc(C(F)(F)F)c1)c1c[nH]c2ncc(C3CC3)nc12` [Compound I-8, 2-Cyclopropyl-5H-pyrrolo[2,3-b]pyrazine-7-carboxylic acid (3-trifluoromethyl-phenyl)-amide] displayed a melting point of 271.1 to 272.9 °C. Moreover, the IC50 in data set [1] worked out at 963 nM.
The matching figures for `Cc1ccc(C#N)cc1NC(=O)c1c[nH]c2ncc(C3CC3)nc12` [Compound I-9, 2-Cyclopropyl-5H-pyrrolo[2,3-b]pyrazine-7-carboxylic acid (5-cyano-2-methyl-phenyl)-amide]: 280 to 284 °C and 157 nM.
The matching figures for `N#CC1(NC(=O)c2c[nH]c3ncc(C4CC4)nc23)CC1` [Compound I-10, 2-Cyclopropyl-5H-pyrrolo[2,3-b]pyrazine-7-carboxylic acid (1-cyano-cyclopropyl)-amide]: above 300 °C and 524 nM.
Take `CC(C)(O)C1(NC(=O)c2c[nH]c3ncc(C4CC4)nc23)CCCC1` [Compound I-12, 2-Cyclopropyl-5H-pyrrolo[2,3-b]pyrazine-7-carboxylic acid [1-(1-hydroxy-1-methyl-ethyl)-cyclopentyl]-amide]: the melting point fell in the range of 232 to 234 °C. The IC50 in data set [1] worked out at 49.7 nM.
The matching figures for `CC(C)(O)C1(NC(=O)c2c[nH]c3ncc(C4CC4)nc23)CCC1` [Compound I-13, 2-Cyclopropyl-5H-pyrrolo[2,3-b]pyrazine-7-carboxylic acid [1-(1-hydroxy-1-methyl-ethyl)-cyclobutyl]-amide]: 264 to 266 °C and 42.7 nM.
Taken in the same sequence, the figures for `CC(C)(O)C1(NC(=O)c2c[nH]c3ncc(C4CC4)nc23)CCCCC1` [Compound I-14, 2-Cyclopropyl-5H-pyrrolo[2,3-b]pyrazine-7-carboxylic acid [1-(1-hydroxy-1-methyl-ethyl)-cyclohexyl]-amide] were 228 to 230 °C and 38.9 nM.
For `O=C(N[C@H]1CCOC[C@@H]1O)c1c[nH]c2ncc(C3CC3)nc12` [Compound I-15, 2-Cyclopropyl-5H-pyrrolo[2,3-b]pyrazine-7-carboxylic acid ((3R,4S)-3-hydroxy-tetrahydro-pyran-4-yl)-amide], the IC50 in data set [1] amounted to 423 nM.
`CC1(C)COCC1NC(=O)c1c[nH]c2ncc(C3CC3)nc12` (stereo not shown) [Compound I-16, 2-Cyclopropyl-5H-pyrrolo[2,3-b]pyrazine-7-carboxylic acid (4,4-dimethyl-tetrahydro-furan-3-yl)-amide] returned a melting point above 300 °C. In addition, in data set [1], the IC50 is 9.8 nM.
Take `CC(C)(O)C1(NC(=O)c2c[nH]c3ncc(C4CC4)nc23)CCNC1` (stereo not shown) [Compound I-17, 2-Cyclopropyl-5H-pyrrolo[2,3-b]pyrazine-7-carboxylic acid [3-(1-hydroxy-1-methyl-ethyl)-pyrrolidin-3-yl]-amide]: in data set [1], the IC50 was determined as 10000 nM.
Turning to `CC(C)(O)C1(NC(=O)c2c[nH]c3ncc(C4CC4)nc23)CCOC1` (stereo not shown) [Compound I-18, 2-Cyclopropyl-5H-pyrrolo[2,3-b]pyrazine-7-carboxylic acid [3-(1-hydroxy-1-methyl-ethyl)-tetrahydro-furan-3-yl]-amide], the melting point is 213 to 215 °C. Besides, the IC50 in data set [1] was 342 nM.
For `O=C(NC1(C(=O)C2CC2)CCCC1)c1c[nH]c2ncc(C3CC3)nc12` [Compound I-19, 2-Cyclopropyl-5H-pyrrolo[2,3-b]pyrazine-7-carboxylic acid (1-cyclopropanecarbonyl-cyclopentyl)-amide], the melting point fell in the range of 296 to 299 °C. Moreover, the IC50 in data set [1] was found to be 1040 nM.
`CC1(C)CCN(S(C)(=O)=O)CC1NC(=O)c1c[nH]c2ncc(C3CC3)nc12` (stereo not shown) [Compound I-35, 2-Cyclopropyl-5H-pyrrolo[2,3-b]pyrazine-7-carboxylic acid (1-methanesulfonyl-4,4-dimethyl-piperidin-3-yl)-amide]: the IC50 in data set [1] stood at 2.1 nM.
On the same count and under the same terms, for `CCn1cc(-c2cnc3[nH]cc(C(=O)NC4CCCCC4(C)C)c3n2)cn1` (stereo not shown) [Compound I-39, 2-(1-Ethyl-1H-pyrazol-4-yl)-5H-pyrrolo[2,3-b]pyrazine-7-carboxylic acid (2,2-dimethyl-cyclohexyl)-amide] the value was 0.3 nM.
Same read-out and setting: to `CC(=O)N[C@@H]1CCc2ccc(Oc3cnc4[nH]cc(C(=O)NC5CCCCC5)c4n3)cc21` [Compound I-40, 2-((R)-3-Acetylamino-indan-5-yloxy)-5H-pyrrolo[2,3-b]pyrazine-7-carboxylic acid cyclohexylamide] belongs 50.2 nM; to `CC(=O)N[C@@H]1CCc2ccc(Oc3cnc4[nH]cc(C(=O)NC5CCS(=O)(=O)CC5)c4n3)cc21` [Compound I-41, 2-((R)-3-Acetylamino-indan-5-yloxy)-5H-pyrrolo[2,3-b]pyrazine-7-carboxylic acid (1,1-dioxo-hexahydro-1λ6-thiopyran-4-yl)-amide], 2160 nM.
